Laboratory results taken from patent US5008246A, “Novel peptides suppressing the function of the immune system, pharmaceutical compositions containing them and process for preparing same” (Richter Gedeon Vegyeszeti Gyar R. T., priority 1988, dated 1991).
Where a SMILES comes first, the peptide text is derived from it. [ ]: non-standard residue; d: D form.

What was measured:
[1] = system: resting macrophages; experiment: Effect on the phagocytating capacity of resting macrophages; assay type: in vivo, male NZB (OLAC-SzKB) mice; settings: 1 mg/kg s.c. daily for 4 days; count of phagocytated opsonized yeast cells by peritoneal macrophages vs untreated animals
Method: These examinations were carried out on 6 months old male NZB (OLAC-SzKB) mice according to the method described in J. Immunopharmnacol. 4, 265 (1982-1983). The animals were treated daily with a 1 mg/kg subcutaneous (s.c.) dose of the test substances for 4 days. After bleeding the animals, their peritonea were washed with 8 ml of PBS buffer solution (pH 7.2) each containing 10 IU of heparin. The cell suspension washed out from the peritoneum was made free of the erythrocytes by shocking with distilled water, then washed 3 times with PBS buffer solution. The sedimentation between two washings was achieved by centrifuging at 1000 rpm for 5 minutes. Then, the concentration of each cell suspension was adjusted to 10^6 cell/ml and the suspension was settled for 30 minutes in a Boyden-chamber at 37° C. in an atmosphere containing 5% of carbon dioxide. Over the macrophages adhered to the glass wall, opsonized yeast was layered. After removing the non-phagocytated particles, those incorporated by the macrophages were counted in each cell. In Table 3, the percentage of decrease in the count of the phagocytated yeast cells is given in relation to the macrophages isolated from the untreated animals as control.

[2] = system: contact dermatitis; experiment: Inhibition of the contact dermatitis (oxazolone, method of Evans et al.); assay type: in vivo, male BALB/c (LATI) mice; settings: oxazolone-sensitized mice, 1.0 mg/kg i.p.; ear weight difference after 24 hours vs physiological saline control
Method: These investigations were carried out on male BALB/c (LATI) mice with 20 to 22 g body-weight by using the method of Evans et al. [Br. J. Pharmacol. 43, 403 (1971)]. The abdominal side of the animals were depilated, then the naked abdominal skin of each animal was sensitized by 0.1 ml of the oxazolone solution of 2% in sunflower oil. After 1 week, the mice were i.p. treated with an 1.0 mg/kg dose of the test substance (dissolved in physiological saline solution), then the right ear of the animals was directly treated with 10 μl of an acetone solution containing 2% oxazolone while their left ear was treated with 10 μl of acetone. After 24 hours, their ears were cut off and weighed. The difference between the weight of treated and untreated ears of the animals was compared with the difference observed at the animals treated with the test substance and treated only with physiological saline solution, respectively. The difference in the ear weight was considered to be proportional to the extent of the contact dermatitis, while the value measured at the animals not treated with the test substance was taken as control, the dermatitis-diminishing effect of the test substances was obtained as expressed in percentage shown in Table 4.

SMILES	Effect on the phagocytating capacity of resting macrophages % [1] [%]	Inhibition of the contact dermatitis % [2] [%]
N=C(N)NCCC[C@H](N)C(=O)NCCCC[C@H](N)C(=O)N[C@@H](CC(=O)O)C(=O)O [Compound 12, Lys(Arg)--Asp] (H-Lys(Arg)-Asp-OH)	-42	-16
N=C(N)NCCC[C@H](N)C(=O)NCCCC[C@H](N)C(=O)N[C@H](CC(=O)O)C(=O)O [Compound 13, Lys(Arg)--D--Asp] (H-Lys(Arg)-[dD]-OH)	-50	–
